The values that follow come from patent US9758489B2, “Azepane derivatives and methods of treating hepatitis B infections” (Novira Therapeutics, Inc., priority 2013, dated 2017).

The target in assay [1] is HBV C150Bo protein (mutant C150 HBV capsid protein labeled with BoDIPY-FL) (Hepatitis B virus genotype D subtype adw, UniProt P03147, C107A/C48A/C61A/R150C). Description: HBV assembly assay (fluorescence quenching in vitro capsid assembly). The assay is classed as biochemical. The note with it: for Activity (HBV assembly assay): at about 10 μM, 50 mM Hepes pH 7.5, 150 mM NaCl, 1 hour at room temperature; for IC50: HBV assembly assay, read-out: Activity (HBV assembly potency, IC50).

Assay [2] deals with HBV replication in HepG2-2.2.15 cells. Description: Dot-blot assay: inhibition of HBV replication in HBV-producing hepatoma cell line. The assay is classed as cell-based. The note with it: Hepatitis B virus, 144 h, six days, reduction in HBV DNA levels. The protocol:
Compounds active in the HBV assembly assay are tested for their activity and toxicity in cellular assay. In the first anti-viral assay, the ability of compounds to inhibit HBV replication in an HBV-producing hepatoma cell line using the dot-blot method is evaluated.
Briefly, confluent monolayers of HepG2-2.2.15 cells are incubated with complete medium containing various concentrations of a test compound. Three days later, the culture medium is replaced with fresh medium containing the appropriately diluted test compound. Six days following the initial administration of the test compound, the cell culture supernatant is collected, and cell lysis is performed. The samples are applied onto Nylos membranes and DNA is immobilized to the membrane by UV cross-linking. After pre-hybridization, the HBV probe is added and the hybridization is performed overnight. The membranes are exposed to the Kodak films; antiviral activity is calculated from the reduction in HBV DNA levels (EC50). The EC50 for antiviral activity is calculated from the dose response curves of active compounds. Assay performance over time is monitored by the use of the standard positive control compounds ETV, BAY 41-4109, and HAP-1.
In the first anti-viral assay, the ability of compounds to inhibit HBV replication in an HBV-producing hepatoma cell line using the dot-blot method was evaluated.
Confluent monolayers of HepG2-2.2.15 cells were incubated with complete medium containing various concentrations of a test compound. Three days later, the culture medium was replaced with fresh medium containing the appropriately diluted test compound. Six days following the initial administration of the test compound, the cell culture supernatant was collected, and cell lysis was performed. The samples were applied onto Nylos membranes and DNA was immobilized to the membrane by UV cross-linking. After pre-hybridization, the HBV probe was added and the hybridization was performed overnight. The membranes were exposed to the Kodak films; antiviral activity was calculated from the reduction in HBV DNA levels (EC50). The EC50 for antiviral activity was calculated from the dose response curves of active compounds. Assay performance over time was monitored by the use of the standard positive control compounds ETV, BAY 41-4109, and HAP-1.

Chain of HBV C150Bo protein (mutant C150 HBV capsid protein labeled with BoDIPY-FL) (P03147 1-150 C48A/C61A/C107A/R150C): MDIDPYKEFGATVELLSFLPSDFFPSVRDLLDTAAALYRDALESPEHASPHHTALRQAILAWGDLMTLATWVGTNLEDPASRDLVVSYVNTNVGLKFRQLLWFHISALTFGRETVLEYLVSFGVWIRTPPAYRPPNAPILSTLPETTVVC

For `O=C(Nc1ccc(F)c(F)c1)N1CCCN(c2c(Cl)cncc2Cl)CC1` [Compound 004], the “Activity (HBV assembly assay)” value in assay [1] is on record as “+ (>50% activity at about 10 μM)”.
Regarding `O=C(Nc1ccc(F)c(Cl)c1)N1CCCN(c2c(Cl)cncc2Cl)CC1` [Compound 005], the “Activity (HBV assembly assay)” value in assay [1] is on record as “+ (>50% activity at about 10 μM)”.
Compound `O=C(Nc1cccc(Cl)c1)N1CCCN(c2c(Cl)cncc2Cl)CC1` [Compound 010] had an inhibition at 10 µM in assay [2] above 50%. For the same compound, the “Activity (HBV assembly assay)” value in assay [1] was “+ (>50% activity at about 10 μM)”.
`O=C(Nc1cccc(F)c1)N1CCCN(c2c(Cl)cncc2Cl)CC1` [Compound 011] registered an inhibition at 10 µM in assay [2] above 50%. Also, the “Activity (HBV assembly assay)” value in assay [1] is given as “+ (>50% activity at about 10 μM)”.
With `O=C(Nc1cc(F)c(F)c(F)c1)N1CCCN(c2c(Cl)cncc2Cl)CC1` [Compound 025], in assay [2], the inhibition at 10 µM is above 50%.
Regarding `O=C(Nc1ccc(F)c(Cl)c1)N1CCCN(c2c(Cl)cncc2Cl)CC1` [Compound 040], the inhibition at 10 µM in assay [2] is above 50%.
The same measure, in the same setting: then `O=C(Nc1ccc(F)c(Cl)c1)N1CCCN(c2ccnc(Cl)c2Cl)CC1` [Compound 041], with above 50%.
For `Cc1cncc(Cl)c1N1CCCN(C(=O)Nc2ccc(F)c(Cl)c2)CC1` [Compound 044], the inhibition at 10 µM in assay [2] is above 50%. Also, the “Activity (HBV assembly assay)” value in assay [1] is reported as “+ (>50% activity at about 10 μM)”.
For `O=C(Nc1ccc(F)c(Cl)c1)N1CCCN(c2c(F)cncc2Cl)CC1` [Compound 045], in that order: above 50% and “+ (>50% activity at about 10 μM)”.
The matching figures for `Cc1cncc(C)c1N1CCCN(C(=O)Nc2ccc(F)c(Cl)c2)CC1` [Compound 047]: above 50% and “+ (>50% activity at about 10 μM)”.
As to `O=C(Nc1ccc(Cl)c(F)c1)N1CCCN(c2c(Cl)cncc2Cl)CC1` [Compound 049], the inhibition at 10 µM in assay [2] was above 50%.
On to `O=C(Nc1ccc(F)c(Cl)c1)C1CCCN(c2c(Cl)cncc2Cl)CC1` (stereo not shown) [Compound 055], for which the “Activity (HBV assembly assay)” value in assay [1] was “+ (>50% activity at about 10 μM)”.
`O=C(Nc1ccc(F)c(F)c1)C1CCCN(c2c(Cl)cncc2Cl)CC1` (stereo not shown) [Compound 056]: the inhibition at 10 µM in assay [2] is above 50%. Further, in assay [1], the “Activity (HBV assembly assay)” value was “+ (>50% activity at about 10 μM)”.
For the compound `O=C(Nc1ccc(F)c(Cl)c1)N1CC2CC(C1)N(c1c(Cl)cncc1Cl)C2` (stereo not shown) [Compound 065], the inhibition at 10 µM in assay [2] was above 50%.
`O=C(Nc1ccc(F)c(Cl)c1)N1CC2CC1CCN2c1c(Cl)cncc1Cl` (stereo not shown) [Compound 077]: the inhibition at 10 µM in assay [2] was above 50%.
As to `CC1CN(c2c(Cl)cncc2Cl)CCCN1C(=O)Nc1ccc(F)c(Cl)c1` (stereo not shown) [Compound 087], in assay [2], the inhibition at 10 µM was above 50%.
Regarding `O=C(Nc1ccc(F)c(Cl)c1)N1CCCN(c2c(Cl)cncc2Cl)CC1Cc1ccccc1` (stereo not shown) [Compound 091], in assay [1], the IC50 is below 20 µM and the “Activity (HBV assembly assay)” value is on record as “+ (>50% activity at about 10 μM)”.
As to `CC1CCN(c2c(Cl)cncc2Cl)CCN1C(=O)Nc1ccc(F)c(Cl)c1` (stereo not shown) [Compound 092], in assay [2], the inhibition at 10 µM is above 50%. In assay [1], the IC50 is below 20 µM and the “Activity (HBV assembly assay)” value is “+ (>50% activity at about 10 μM)”.
On to `CC1CN(C(=O)Nc2ccc(F)c(Cl)c2)CCN(c2c(Cl)cncc2Cl)C1` (stereo not shown) [Compound 097], for which, in assay [2], the inhibition at 10 µM is above 50%. Also, in assay [1], the “Activity (HBV assembly assay)” value is reported as “+ (>50% activity at about 10 μM)”.
Take `COC(=O)C1CN(C(=O)Nc2ccc(F)c(Cl)c2)CCN(c2c(Cl)cncc2Cl)C1` (stereo not shown) [Compound 098]: the “Activity (HBV assembly assay)” value in assay [1] is given as “+ (>50% activity at about 10 μM)”.
In assay [2], `O=C(Nc1ccc(F)c(Cl)c1)N1CCN(c2c(Cl)cncc2Cl)CC(CO)C1` (stereo not shown) [Compound 099] registered an inhibition at 10 µM above 50%. For the same compound, the “Activity (HBV assembly assay)” value in assay [1] is given as “+ (>50% activity at about 10 μM)”.
For `O=C(Nc1ccc(F)c(Cl)c1)N1CCN(c2c(Cl)cncc2Cl)CC(O)C1` (stereo not shown) [Compound 100], in that order: above 50% and “+ (>50% activity at about 10 μM)”.
Compound `CCc1cncc(Cl)c1N1CCCN(C(=O)Nc2ccc(F)c(Cl)c2)CC1` [Compound 107] came in with an inhibition at 10 µM in assay [2] above 50%. In addition, in assay [1], the IC50 is below 20 µM and the “Activity (HBV assembly assay)” value is “+ (>50% activity at about 10 μM)”.
For `CCc1cncc(Cl)c1N1CCCN(C(=O)Nc2cccc(Cl)c2)CC1` [Compound 108], in assay [1], the IC50 was below 20 µM and the “Activity (HBV assembly assay)” value is “+ (>50% activity at about 10 μM)”.
As for `O=C(Nc1ccc(F)c(Cl)c1)N1CCCN(c2c(Cl)cncc2C2CC2)CC1` [Compound 109], the inhibition at 10 µM in assay [2] is above 50%. Moreover, in assay [1], the concentration for half-maximal inhibition (IC50) was below 20 µM and the “Activity (HBV assembly assay)” value is “+ (>50% activity at about 10 μM)”.
With `O=C(Nc1cccc(Cl)c1)N1CCCN(c2c(Cl)cncc2C2CC2)CC1` [Compound 110], in assay [1], the IC50 was below 20 µM and the “Activity (HBV assembly assay)” value is “+ (>50% activity at about 10 μM)”.
For `O=C(Nc1ccc(F)c(Cl)c1)N1CCCN(c2c(Cl)cncc2Cc2ccccc2)CC1` [Compound 115], the inhibition at 10 µM in assay [2] was above 50%.
`O=C(Nc1ccc(F)c(F)c1)N1C2CCC1CN(c1c(Cl)cncc1Cl)CC2` (stereo not shown) [Compound 120] showed an inhibition at 10 µM in assay [2] above 50%. Further, the “Activity (HBV assembly assay)” value in assay [1] was “+ (>50% activity at about 10 μM)”.
On to `O=C(Nc1ccc(F)c(Cl)c1)N1C2CCC1CN(c1c(Cl)cncc1Cl)CC2` (stereo not shown) [Compound 121], for which the inhibition at 10 µM in assay [2] was above 50%.
The compound `O=C(Nc1ccc(F)c(Cl)c1)N1CCCN(c2c(Cl)cncc2CO)CC1` [Compound 126] returned an inhibition at 10 µM in assay [2] above 50%.
The same measure, in the same setting: for `COCCc1cncc(Cl)c1N1CCCN(C(=O)Nc2ccc(F)c(Cl)c2)CC1` [Compound 129] the value was above 50%.
`COC1CN(C(=O)Nc2ccc(F)c(Cl)c2)CCN(c2c(Cl)cncc2Cl)C1` (stereo not shown) [Compound 130]: the inhibition at 10 µM in assay [2] was above 50%.
In assay [2], `CCOC1CN(C(=O)Nc2ccc(F)c(Cl)c2)CCN(c2c(Cl)cncc2Cl)C1` (stereo not shown) [Compound 131] returned an inhibition at 10 µM above 50%.
